# Experimental data published in publication PMC11345836 (Journal of Medicinal Chemistry, 2024).
# Like-named read-outs stand apart in the source and are kept apart here.
# Experiments:
# [1] = cited from earlier work
# [2] = Solubility of solid forms; type: physicochemical
# [3] = cited from earlier work; remark: listed apart in the source
# [4] = cited from earlier work; remark: listed apart in the source
# [5] = cited from earlier work; remark: listed apart in the source
# [6] = NMR EXSY rotamer exchange kinetics; conditions: for Rotamer exchange in EXSY: 300 ms mixing time at 298 K; for Torsion Rotation t1/2: extrapolated to 298 K
# [7] = 0.3–10 μM; cited from earlier work
# [8] = 0.3–10 μM; cited from earlier work; remark: listed apart in the source
# [9] = 2–200 μM; cited from earlier work
# [10] = cited from earlier work; remark: listed apart in the source
# [11] = 0.3–10 μM; cited from earlier work; remark: listed apart in the source
# [12] = rat, p.o. 10 mg/kg, fed
# [13] = Rat liver microsome stability; conditions: for microsomal CLint: rat, microsomes; for predicted hepatic clearance, rat: scaled from rat liver microsomes
# [14] = Shake-flask LogD; type: physicochemical
smiles,measurement,setting,value
"CC(C)(C)[C@H](NC(=O)C(F)(F)F)C(=O)N1C[C@H]2[C@@H]([C@H]1C(=O)N[C@H](C#N)C[C@@H]1CCNC1=O)C2(C)C [Compound 1, nirmatrelvir]","CLint,app, substrate depletion in HLM",[1],28.8 µL/min/mg
same,"predicted hepatic clearance, human",[1]; from substrate depletion in HLM,6.3 mL/min/kg
same,solubility,[2]; Form: Anhydrous,1200 µg/mL
same,solubility,[2]; Form: MTBE,7210 µg/mL
same,"predicted hepatic clearance, rats",[3],5.8 mL/min/kg
same,"predicted hepatic clearance, monkeys",[4],25 mL/min/kg
same,"observed CLp, rats",[5],22.7 mL/min/kg
same,Energy of Rotation,[6]; Form: Anhydrous,20.4 kcal/mol
same,Rotamer exchange in EXSY,[6]; Form: Anhydrous,No
same,Torsion Rotation t1/2,[6]; Form: Anhydrous,10.54 min
same,Energy of Rotation,[6]; Form: MTBE,20.2 kcal/mol
same,Rotamer exchange in EXSY,[6]; Form: MTBE,No
same,Torsion Rotation t1/2,[6]; Form: MTBE,10.99 min
same,"fu,p monkey plasma",[7],0.39–0.50
same,"fu,p human plasma",[8],0.30–0.33
same,"fu,p dog plasma",[9],0.024–0.69
same,"observed CLp, monkeys",[10],15.8 mL/min/kg
same,"fu,p rat plasma",[11],0.47–0.49
"COC(=O)N[C@H](C(=O)N1C[C@H](OC(F)(F)F)C[C@H]1C(=O)N[C@H](C#N)C[C@@H]1CCNC1=O)C(C)(C)C [Compound 5, Methyl ((S)-1-((2S,4R)-2-(((S)-1-cyano-2-((S)-2-oxopyrrolidin-3-yl)ethyl)carbamoyl)-4-(trifluoromethoxy)pyrrolidin-1-yl)-3,3-dimethyl-1-oxobutan-2-yl)carbamate]",Fa × Fg,"[12]; amorphous, solution","12.2 (11.4, 13.2) %"
same,Oral F,"[12]; amorphous, solution","8.6 (8.0, 9.2) %"
same,microsomal CLint,[13],< 5.8 µL/min/mg
same,"predicted hepatic clearance, rat",[13],< 11 mL/min/kg
"CC(C)(C)[C@H](NC(=O)C(F)(F)F)C(=O)N1C[C@H](OC(F)F)C[C@H]1C(=O)N[C@H](C#N)C[C@@H]1CCNC1=O [Compound 6, (2S,4R)-N-((S)-1-Cyano-2-((S)-2-oxopyrrolidin-3-yl)ethyl)-4-(difluoromethoxy)-1-((S)-3,3-dimethyl-2-(2,2,2-trifluoroacetamido)butanoyl)pyrrolidine-2-carboxamide]",Fa × Fg,[12]; 50% ASD,"7.2 (7.3, 6.9) %"
same,Oral F,[12]; 50% ASD,"4.2 (4.3, 4.1) %"
same,Fa × Fg,"[12]; crystalline, suspension","20.2 (20.0, 20.4) %"
same,microsomal CLint,[13],< 5.8 µL/min/mg
same,"predicted hepatic clearance, rat",[13],< 11 mL/min/kg
"COC(=O)N[C@H](C(=O)N1C[C@H](C(F)(F)F)C[C@H]1C(=O)N[C@H](C#N)C[C@@H]1CCCNC1=O)C(C)C [Compound 12, Methyl ((S)-1-((2S,4R)-2-(((S)-1-cyano-2-((S)-2-oxopiperidin-3-yl)ethyl)carbamoyl)-4-(trifluoromethyl)pyrrolidin-1-yl)-3-methyl-1-oxobutan-2-yl)carbamate]",Fa × Fg,[12]; 50% ASD,"15.8 (17.1, 14.5) %"
same,Oral F,[12]; 50% ASD,"8.1 (8.8, 7.5) %"
same,Fa × Fg,"[12]; amorphous, solution","14.7 (12.3, 17.6) %"
same,Oral F,"[12]; amorphous, solution","7.7 (6.3,9.0) %"
same,microsomal CLint,[13],< 5.8 µL/min/mg
same,"predicted hepatic clearance, rat",[13],< 11 mL/min/kg
Cc1cccc(C)c1OCC(=O)N[C@@H](Cc1ccccc1)[C@@H](O)C[C@H](Cc1ccccc1)NC(=O)[C@H](C(C)C)N1CCCNC1=O [lopinavir],logD,[14],3.8
Cc1cnc(C(=O)N[C@H]2CCCCC/C=C\[C@@H]3C[C@@]3(C(=O)NS(=O)(=O)C3CC3)NC(=O)[C@@H]3C[C@@H](Oc4nc5ccccc5c5ccccc45)CN3C2=O)cn1 [paritaprevir],logD,[14],3.1
